From the kinase profiling compilation of Christmann-Franck et al. (2016)

What was measured:
Experiment in all cases: KINOMEscan competition binding
Conditions in all cases: compound 10.0 µM
[1] = biological target: EPHA8 (human) (UniProt P29322)
[2] = biological target: PHKG2 (human) (UniProt P15735)
[3] = biological target: PHKG1 (human) (UniProt Q16816)
[4] = biological target: RPS6KA6 KD2 (human) (UniProt Q9UK32)
[5] = biological target: ADCK4 (human) (UniProt Q96D53)
[6] = biological target: NUAK1 (human) (UniProt O60285)
[7] = biological target: GSK3A (human) (UniProt P49840)
[8] = biological target: DCLK2 (human) (UniProt Q8N568)
[9] = biological target: NEK9 (human) (UniProt Q8TD19)
[10] = biological target: PDGFRA (human) (UniProt P16234)
[11] = biological target: LYN (human) (UniProt P07948)
[12] = biological target: RIOK3 (human) (UniProt O14730)
[13] = biological target: DAPK1 (human) (UniProt P53355)
[14] = biological target: CDK16 (human) (UniProt Q00536)
[15] = biological target: TLK2 (human) (UniProt Q86UE8)
[16] = biological target: CDK7 (human) (UniProt P50613)
[17] = biological target: MLTK (human) (UniProt Q9NYL2)
[18] = biological target: ANKK1 (human) (UniProt Q8NFD2)
[19] = biological target: JAK2 JH1 catalytic (human) (UniProt O60674)
[20] = biological target: TGFBR1 (human) (UniProt P36897)
[21] = biological target: ACVR2B (human) (UniProt Q13705)
[22] = biological target: PLK1 (human) (UniProt P53350)
[23] = biological target: PIK3CB (human) (UniProt P42338)
[24] = biological target: RET (human) (UniProt P07949)
[25] = biological target: MAP3K4 (human) (UniProt Q9Y6R4)
[26] = biological target: CSNK1D (human) (UniProt P48730)
[27] = biological target: PRKACA (human) (UniProt P17612)
[28] = biological target: MYO3A (human) (UniProt Q8NEV4)
[29] = biological target: CSNK1G1 (human) (UniProt Q9HCP0)
[30] = biological target: LATS1 (human) (UniProt O95835)
[31] = biological target: NEK1 (human) (UniProt Q96PY6)
[32] = biological target: CDK14 (human) (UniProt O94921)
[33] = biological target: ACVR1 (human) (UniProt Q04771)
[34] = biological target: STK25 (human) (UniProt O00506)
[35] = biological target: ULK1 (human) (UniProt O75385)
[36] = biological target: MAP3K11 (human) (UniProt Q16584)
[37] = biological target: PAK2 (human) (UniProt Q13177)
[38] = biological target: PTK2B (human) (UniProt Q14289)
[39] = biological target: AURKB (human) (UniProt Q96GD4)
[40] = biological target: CAMKK2 (human) (UniProt Q96RR4)

Chain of ACVR2B (human) (Q13705 whole entry, looked up): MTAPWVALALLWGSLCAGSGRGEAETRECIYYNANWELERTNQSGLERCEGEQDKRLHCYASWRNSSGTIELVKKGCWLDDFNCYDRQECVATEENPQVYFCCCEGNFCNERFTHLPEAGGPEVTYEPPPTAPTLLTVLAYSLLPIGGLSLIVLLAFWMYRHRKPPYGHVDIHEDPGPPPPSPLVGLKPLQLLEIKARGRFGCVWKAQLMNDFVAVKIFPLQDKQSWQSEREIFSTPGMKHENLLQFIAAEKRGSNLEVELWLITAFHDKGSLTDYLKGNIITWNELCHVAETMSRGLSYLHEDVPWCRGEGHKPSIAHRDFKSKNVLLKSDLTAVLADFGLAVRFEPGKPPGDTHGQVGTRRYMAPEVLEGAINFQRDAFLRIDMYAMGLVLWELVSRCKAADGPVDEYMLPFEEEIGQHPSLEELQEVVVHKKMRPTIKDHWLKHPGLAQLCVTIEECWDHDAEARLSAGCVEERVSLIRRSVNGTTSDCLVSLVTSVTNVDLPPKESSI
Chain of RPS6KA6 KD2 (human) (Q9UK32 whole entry, looked up): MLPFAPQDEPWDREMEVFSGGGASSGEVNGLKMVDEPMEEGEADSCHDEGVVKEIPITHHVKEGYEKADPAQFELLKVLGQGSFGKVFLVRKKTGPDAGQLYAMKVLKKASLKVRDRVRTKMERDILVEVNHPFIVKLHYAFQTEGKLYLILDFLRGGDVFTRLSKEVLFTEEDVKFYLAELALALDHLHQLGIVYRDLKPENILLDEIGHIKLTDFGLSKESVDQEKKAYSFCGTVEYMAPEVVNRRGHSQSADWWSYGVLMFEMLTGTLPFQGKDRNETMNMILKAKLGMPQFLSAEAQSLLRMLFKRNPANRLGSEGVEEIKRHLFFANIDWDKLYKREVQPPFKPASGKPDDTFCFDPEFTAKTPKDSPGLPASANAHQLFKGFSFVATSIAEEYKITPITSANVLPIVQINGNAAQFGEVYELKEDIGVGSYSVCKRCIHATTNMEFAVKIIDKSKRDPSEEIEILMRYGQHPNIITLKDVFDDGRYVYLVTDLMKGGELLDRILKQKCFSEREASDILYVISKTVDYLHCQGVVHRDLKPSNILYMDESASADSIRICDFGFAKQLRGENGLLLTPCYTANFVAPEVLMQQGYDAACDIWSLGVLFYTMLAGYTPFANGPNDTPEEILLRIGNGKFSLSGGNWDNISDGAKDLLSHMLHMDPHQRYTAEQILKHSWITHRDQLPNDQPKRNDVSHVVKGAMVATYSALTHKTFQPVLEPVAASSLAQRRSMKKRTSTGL
Chain of ACVR1 (human) (Q04771 whole entry, looked up): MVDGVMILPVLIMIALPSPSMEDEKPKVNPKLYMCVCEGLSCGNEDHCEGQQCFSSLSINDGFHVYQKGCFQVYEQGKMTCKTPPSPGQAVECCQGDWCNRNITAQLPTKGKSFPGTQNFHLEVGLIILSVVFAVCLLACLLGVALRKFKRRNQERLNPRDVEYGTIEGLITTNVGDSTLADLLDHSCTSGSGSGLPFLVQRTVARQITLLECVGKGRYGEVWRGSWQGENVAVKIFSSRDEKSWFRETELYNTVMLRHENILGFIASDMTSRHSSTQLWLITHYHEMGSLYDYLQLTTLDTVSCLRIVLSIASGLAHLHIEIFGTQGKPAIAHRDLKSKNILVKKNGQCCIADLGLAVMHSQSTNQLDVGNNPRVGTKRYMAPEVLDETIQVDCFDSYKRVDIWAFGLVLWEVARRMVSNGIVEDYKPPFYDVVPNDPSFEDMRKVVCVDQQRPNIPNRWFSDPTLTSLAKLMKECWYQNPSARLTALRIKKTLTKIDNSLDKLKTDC
Chain of NUAK1 (human) (O60285 whole entry, looked up): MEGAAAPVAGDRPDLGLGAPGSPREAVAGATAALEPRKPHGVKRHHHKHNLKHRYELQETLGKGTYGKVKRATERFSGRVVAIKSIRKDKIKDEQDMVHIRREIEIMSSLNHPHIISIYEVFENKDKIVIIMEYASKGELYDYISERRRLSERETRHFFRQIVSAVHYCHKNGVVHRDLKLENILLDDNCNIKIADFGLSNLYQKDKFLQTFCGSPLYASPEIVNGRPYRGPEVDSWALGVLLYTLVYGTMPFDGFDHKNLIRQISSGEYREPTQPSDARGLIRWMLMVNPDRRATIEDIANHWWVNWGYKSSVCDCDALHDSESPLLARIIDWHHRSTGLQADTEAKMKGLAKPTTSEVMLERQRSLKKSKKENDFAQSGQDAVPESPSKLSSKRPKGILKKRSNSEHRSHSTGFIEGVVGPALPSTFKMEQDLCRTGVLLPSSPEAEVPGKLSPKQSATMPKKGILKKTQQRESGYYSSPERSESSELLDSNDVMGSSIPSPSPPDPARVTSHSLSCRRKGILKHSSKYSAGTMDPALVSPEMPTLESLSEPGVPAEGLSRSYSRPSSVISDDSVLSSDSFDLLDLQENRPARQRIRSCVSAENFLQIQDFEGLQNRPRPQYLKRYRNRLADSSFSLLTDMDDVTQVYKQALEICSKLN
Chain of NEK9 (human) (Q8TD19 whole entry, looked up): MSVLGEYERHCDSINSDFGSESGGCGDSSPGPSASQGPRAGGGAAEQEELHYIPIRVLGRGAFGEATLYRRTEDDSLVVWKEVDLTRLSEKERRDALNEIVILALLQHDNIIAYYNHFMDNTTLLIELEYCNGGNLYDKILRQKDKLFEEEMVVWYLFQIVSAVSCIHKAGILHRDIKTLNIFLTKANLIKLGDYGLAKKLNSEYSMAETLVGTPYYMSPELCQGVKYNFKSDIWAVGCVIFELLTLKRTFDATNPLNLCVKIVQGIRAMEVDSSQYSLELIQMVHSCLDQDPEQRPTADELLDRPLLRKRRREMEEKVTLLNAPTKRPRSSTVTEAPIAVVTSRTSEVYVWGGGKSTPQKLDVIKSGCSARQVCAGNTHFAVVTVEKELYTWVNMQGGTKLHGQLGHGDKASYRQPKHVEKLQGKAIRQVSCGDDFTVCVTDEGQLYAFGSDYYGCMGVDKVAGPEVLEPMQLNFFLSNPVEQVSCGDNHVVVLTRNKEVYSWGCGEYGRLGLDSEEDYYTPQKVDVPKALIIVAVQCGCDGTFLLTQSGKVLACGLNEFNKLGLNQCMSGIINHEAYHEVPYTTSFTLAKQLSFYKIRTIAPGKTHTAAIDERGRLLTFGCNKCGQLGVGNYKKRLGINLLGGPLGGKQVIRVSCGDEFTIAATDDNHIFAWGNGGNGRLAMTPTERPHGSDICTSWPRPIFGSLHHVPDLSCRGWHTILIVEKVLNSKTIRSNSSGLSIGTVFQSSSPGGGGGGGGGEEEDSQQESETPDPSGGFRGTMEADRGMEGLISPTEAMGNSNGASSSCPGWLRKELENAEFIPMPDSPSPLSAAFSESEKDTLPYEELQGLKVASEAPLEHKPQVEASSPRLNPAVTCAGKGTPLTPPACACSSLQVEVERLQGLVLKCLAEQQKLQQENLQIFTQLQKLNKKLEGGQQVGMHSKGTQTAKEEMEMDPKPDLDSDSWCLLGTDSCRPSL
Chain of AURKB (human) (Q96GD4 whole entry, looked up): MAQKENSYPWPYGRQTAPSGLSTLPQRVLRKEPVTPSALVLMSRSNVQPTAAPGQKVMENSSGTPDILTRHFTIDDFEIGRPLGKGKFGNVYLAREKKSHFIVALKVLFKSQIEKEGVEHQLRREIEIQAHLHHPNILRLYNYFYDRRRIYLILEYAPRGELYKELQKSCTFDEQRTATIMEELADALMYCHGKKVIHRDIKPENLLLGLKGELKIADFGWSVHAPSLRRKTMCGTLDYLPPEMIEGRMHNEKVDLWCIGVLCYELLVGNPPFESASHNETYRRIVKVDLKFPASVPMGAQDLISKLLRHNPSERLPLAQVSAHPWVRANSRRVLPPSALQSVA
Chain of JAK2 JH1 catalytic (human) (O60674 whole entry, looked up): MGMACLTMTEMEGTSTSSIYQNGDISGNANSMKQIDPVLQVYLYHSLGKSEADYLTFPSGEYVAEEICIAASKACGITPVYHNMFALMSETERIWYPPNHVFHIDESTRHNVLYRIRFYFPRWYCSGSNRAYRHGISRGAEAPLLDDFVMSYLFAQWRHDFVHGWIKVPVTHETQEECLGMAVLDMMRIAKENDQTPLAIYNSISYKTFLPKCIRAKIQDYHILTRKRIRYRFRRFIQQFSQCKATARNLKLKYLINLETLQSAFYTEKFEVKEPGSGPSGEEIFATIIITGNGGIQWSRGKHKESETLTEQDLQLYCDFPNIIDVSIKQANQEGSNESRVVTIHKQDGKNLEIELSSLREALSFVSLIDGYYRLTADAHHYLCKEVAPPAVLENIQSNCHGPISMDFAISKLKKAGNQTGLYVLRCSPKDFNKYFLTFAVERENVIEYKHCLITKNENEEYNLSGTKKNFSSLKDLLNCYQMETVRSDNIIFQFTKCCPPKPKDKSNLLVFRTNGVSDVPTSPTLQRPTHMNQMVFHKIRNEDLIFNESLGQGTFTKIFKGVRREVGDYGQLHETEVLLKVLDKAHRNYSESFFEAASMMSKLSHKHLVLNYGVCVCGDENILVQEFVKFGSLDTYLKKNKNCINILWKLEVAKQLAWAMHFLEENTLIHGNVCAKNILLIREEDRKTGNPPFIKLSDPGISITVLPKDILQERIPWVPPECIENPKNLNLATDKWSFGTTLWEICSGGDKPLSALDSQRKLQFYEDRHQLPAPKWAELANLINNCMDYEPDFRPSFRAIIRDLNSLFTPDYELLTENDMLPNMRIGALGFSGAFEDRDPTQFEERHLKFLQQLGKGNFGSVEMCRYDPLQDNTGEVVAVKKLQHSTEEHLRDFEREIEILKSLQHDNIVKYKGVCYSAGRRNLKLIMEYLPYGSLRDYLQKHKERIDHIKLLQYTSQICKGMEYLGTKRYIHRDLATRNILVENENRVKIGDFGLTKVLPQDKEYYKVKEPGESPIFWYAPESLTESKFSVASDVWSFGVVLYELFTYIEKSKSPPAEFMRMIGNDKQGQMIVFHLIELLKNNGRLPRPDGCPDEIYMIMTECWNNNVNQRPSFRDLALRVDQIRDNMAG

Cn1c(=O)n(-c2ccc(C(C)(C)C#N)cc2)c2c3cc(-c4cnc5ccccc5c4)ccc3ncc21
kinase still bound, per cent of control [1]: 100%
kinase still bound, per cent of control [2]: 100%
kinase still bound, per cent of control [3]: 100%
kinase still bound, per cent of control [4]: 100%
kinase still bound, per cent of control [5]: 100%
kinase still bound, per cent of control [6]: 30%
kinase still bound, per cent of control [7]: 100%
kinase still bound, per cent of control [8]: 100%
kinase still bound, per cent of control [9]: 100%
kinase still bound, per cent of control [10]: 100%
kinase still bound, per cent of control [11]: 100%
kinase still bound, per cent of control [12]: 100%
kinase still bound, per cent of control [13]: 100%
kinase still bound, per cent of control [14]: 100%
kinase still bound, per cent of control [15]: 100%
kinase still bound, per cent of control [16]: 100%
kinase still bound, per cent of control [17]: 100%
kinase still bound, per cent of control [18]: 100%
kinase still bound, per cent of control [19]: 20%
kinase still bound, per cent of control [20]: 100%
kinase still bound, per cent of control [21]: 100%
kinase still bound, per cent of control [22]: 100%
kinase still bound, per cent of control [23]: 22%
kinase still bound, per cent of control [24]: 100%
kinase still bound, per cent of control [25]: 100%
kinase still bound, per cent of control [26]: 100%
kinase still bound, per cent of control [27]: 100%
kinase still bound, per cent of control [28]: 100%
kinase still bound, per cent of control [29]: 100%
kinase still bound, per cent of control [30]: 100%
kinase still bound, per cent of control [31]: 100%
kinase still bound, per cent of control [32]: 100%
kinase still bound, per cent of control [33]: 100%
kinase still bound, per cent of control [34]: 100%
kinase still bound, per cent of control [35]: 100%
kinase still bound, per cent of control [36]: 100%
kinase still bound, per cent of control [37]: 100%
kinase still bound, per cent of control [38]: 100%
kinase still bound, per cent of control [39]: 100%
kinase still bound, per cent of control [40]: 100%

C=CC(=O)Nc1cccc(Oc2nc(Nc3ccc(N4CCN(C)CC4)cc3OC)ncc2Cl)c1
kinase still bound, per cent of control [1]: 100%
kinase still bound, per cent of control [2]: 3.5%
kinase still bound, per cent of control [3]: 7.7%
kinase still bound, per cent of control [4]: 27%
kinase still bound, per cent of control [5]: 100%
kinase still bound, per cent of control [6]: 0.65%
kinase still bound, per cent of control [7]: 100%
kinase still bound, per cent of control [8]: 0.45%
kinase still bound, per cent of control [9]: 100%
kinase still bound, per cent of control [10]: 100%
kinase still bound, per cent of control [11]: 100%
kinase still bound, per cent of control [12]: 20%
kinase still bound, per cent of control [13]: 22%
kinase still bound, per cent of control [14]: 100%
kinase still bound, per cent of control [15]: 100%
kinase still bound, per cent of control [16]: 35%
kinase still bound, per cent of control [17]: 100%
kinase still bound, per cent of control [18]: 100%
kinase still bound, per cent of control [19]: 100%
kinase still bound, per cent of control [20]: 100%
kinase still bound, per cent of control [21]: 100%
kinase still bound, per cent of control [22]: 16%
kinase still bound, per cent of control [23]: 100%
kinase still bound, per cent of control [24]: 100%
kinase still bound, per cent of control [25]: 100%
kinase still bound, per cent of control [26]: 100%
kinase still bound, per cent of control [27]: 100%
kinase still bound, per cent of control [28]: 28%
kinase still bound, per cent of control [29]: 100%
kinase still bound, per cent of control [30]: 100%
kinase still bound, per cent of control [31]: 100%
kinase still bound, per cent of control [32]: 100%
kinase still bound, per cent of control [33]: 100%
kinase still bound, per cent of control [34]: 100%
kinase still bound, per cent of control [35]: 1.6%
kinase still bound, per cent of control [36]: 100%
kinase still bound, per cent of control [37]: 100%
kinase still bound, per cent of control [38]: 25%
kinase still bound, per cent of control [39]: 20%
kinase still bound, per cent of control [40]: 10%
